ChEMBL document CHEMBL3885861, “Open TG-GATES”

Organism: Rattus norvegicus
Experiment: Open TG-GATES - Regimen: Single
Type: toxicity, organism-based, Sprague-Dawley
Design: regimen Single, gender Male, age 6 weeks
Settings: in vivo, po, 300 mg/kg, route gavage, dose level Middle; for APTT / Bas / Eos / Fbg / Hb / Ht / Lym / MCH / MCHC / MCV / Mono / Neu / PT / Plat / RBC / Ret / WBC: tissue Blood; for KIDNEY_L / KIDNEY_R / KIDNEY_TOTAL: tissue Kidney; for LIVER: tissue Liver; for A/G / ALP / ALT / AST / BUN / CRE / Ca / Cl / DBIL / GLC / IP / K / LDH / Na / PL / RALB / TBIL / TC / TG / TP / gamma-GTP: tissue Plasma

O=C(OC[C@H]1O[C@@H](OC(=O)c2cc(O)c(O)c(OC(=O)c3cc(O)c(O)c(O)c3)c2)[C@H](OC(=O)c2cc(O)c(O)c(OC(=O)c3cc(O)c(O)c(O)c3)c2)[C@@H](OC(=O)c2cc(O)c(O)c(OC(=O)c3cc(O)c(O)c(O)c3)c2)[C@@H]1OC(=O)c1cc(O)c(O)c(OC(=O)c2cc(O)c(O)c(O)c2)c1)c1cc(O)c(O)c(OC(=O)c2cc(O)c(O)c(O)c2)c1 [TANNIC ACID]
TERMINAL_BW (3 h): 187.9 g | APTT (3 h): 16.5 s | Bas (3 h): 0% | Eos (3 h): 1% | Fbg (3 h): 212 mg/dL | Hb (3 h): 12.7 g/dL | Ht (3 h): 37.9% | Lym (3 h): 78.6% | MCH (3 h): 21.9 pg | MCHC (3 h): 33.4% | MCV (3 h): 65.5 fL | Mono (3 h): 7.6% | Neu (3 h): 13.4% | PT (3 h): 11.6 s | Plat (3 h): 101.9 x10_4/uL | RBC (3 h): 579.2 x10_4/ul | Ret (3 h): 9.9% | WBC (3 h): 113.5 x10_2/uL | KIDNEY_L (3 h): 0.9 g | KIDNEY_R (3 h): 0.9 g | KIDNEY_TOTAL (3 h): 1.8 g | LIVER (3 h): 8.5 g | A/G (3 h): 2.2 | ALP (3 h): 1029.8 IU/L | ALT (3 h): 37.6 IU/L | AST (3 h): 68.6 IU/L | BUN (3 h): 13.6 mg/dL | CRE (3 h): 0.5 mg/dL | Ca (3 h): 10.7 mg/dL | Cl (3 h): 105 meq/L | DBIL (3 h): 0.02 mg/dL | GLC (3 h): 198 mg/dL | IP (3 h): 10.6 mg/dL | K (3 h): 4.7 meq/L | LDH (3 h): 85.8 IU/L | Na (3 h): 139.6 meq/L | PL (3 h): 148.4 mg/dL | RALB (3 h): 3.7 g/dL | TBIL (3 h): 0.5 mg/dL | TC (3 h): 81.6 mg/dL | TG (3 h): 42.4 mg/dL | TP (3 h): 5.3 g/dL | gamma-GTP (3 h): 1.2 IU/L | TERMINAL_BW (6 h): 184.2 g | APTT (6 h): 16.5 s | Bas (6 h): 0% | Eos (6 h): 1% | Fbg (6 h): 214.4 mg/dL | Hb (6 h): 13 g/dL | Ht (6 h): 39.1% | Lym (6 h): 75.4% | MCH (6 h): 22 pg | MCHC (6 h): 33.3% | MCV (6 h): 66.1 fL | Mono (6 h): 8.6% | Neu (6 h): 15.2% | PT (6 h): 12 s | Plat (6 h): 112.5 x10_4/uL | RBC (6 h): 591.4 x10_4/ul | Ret (6 h): 9.6% | WBC (6 h): 93 x10_2/uL | KIDNEY_L (6 h): 0.9 g | KIDNEY_R (6 h): 0.9 g | KIDNEY_TOTAL (6 h): 1.8 g | LIVER (6 h): 8.2 g | A/G (6 h): 1.9 | ALP (6 h): 784.6 IU/L | ALT (6 h): 38.4 IU/L | AST (6 h): 67.2 IU/L | BUN (6 h): 12.2 mg/dL | CRE (6 h): 0.5 mg/dL | Ca (6 h): 10.6 mg/dL | Cl (6 h): 105.6 meq/L | DBIL (6 h): 0.03 mg/dL | GLC (6 h): 184.2 mg/dL | IP (6 h): 10.2 mg/dL | K (6 h): 4.8 meq/L | LDH (6 h): 106.8 IU/L | Na (6 h): 139.2 meq/L | PL (6 h): 133 mg/dL | RALB (6 h): 3.4 g/dL | TBIL (6 h): 0.6 mg/dL | TC (6 h): 74.4 mg/dL | TG (6 h): 32 mg/dL | TP (6 h): 5.2 g/dL | gamma-GTP (6 h): 1.4 IU/L | TERMINAL_BW (9 h): 182 g | APTT (9 h): 16.4 s | Bas (9 h): 0% | Eos (9 h): 1% | Fbg (9 h): 219.8 mg/dL | Hb (9 h): 13 g/dL | Ht (9 h): 39% | Lym (9 h): 74.8% | MCH (9 h): 21.9 pg | MCHC (9 h): 33.3% | MCV (9 h): 65.9 fL | Mono (9 h): 6.8% | Neu (9 h): 17.2% | PT (9 h): 12.1 s | Plat (9 h): 122.2 x10_4/uL | RBC (9 h): 592.8 x10_4/ul | Ret (9 h): 11% | WBC (9 h): 92.9 x10_2/uL | KIDNEY_L (9 h): 0.8 g | KIDNEY_R (9 h): 0.8 g | KIDNEY_TOTAL (9 h): 1.6 g | LIVER (9 h): 7.5 g | A/G (9 h): 2.1 | ALP (9 h): 836.4 IU/L | ALT (9 h): 35 IU/L | AST (9 h): 60.6 IU/L | BUN (9 h): 12.6 mg/dL | CRE (9 h): 0.4 mg/dL | Ca (9 h): 10.4 mg/dL | Cl (9 h): 105.4 meq/L | DBIL (9 h): 0.034 mg/dL | GLC (9 h): 191.4 mg/dL | IP (9 h): 10 mg/dL | K (9 h): 5.1 meq/L | LDH (9 h): 92.2 IU/L | Na (9 h): 137.2 meq/L | PL (9 h): 126.8 mg/dL | RALB (9 h): 3.7 g/dL | TBIL (9 h): 0.5 mg/dL | TC (9 h): 70.4 mg/dL | TG (9 h): 32.4 mg/dL | TP (9 h): 5.4 g/dL | gamma-GTP (9 h): 1.8 IU/L | TERMINAL_BW (24 h): 201.5 g | APTT (24 h): 15.9 s | Bas (24 h): 0% | Eos (24 h): 0.8% | Fbg (24 h): 217.8 mg/dL | Hb (24 h): 13 g/dL | Ht (24 h): 38.9% | Lym (24 h): 75% | MCH (24 h): 22 pg | MCHC (24 h): 33.4% | MCV (24 h): 65.8 fL | Mono (24 h): 8.2% | Neu (24 h): 16.2% | PT (24 h): 11.7 s | Plat (24 h): 110.3 x10_4/uL | RBC (24 h): 591.6 x10_4/ul | Ret (24 h): 9.5% | WBC (24 h): 114.2 x10_2/uL | KIDNEY_L (24 h): 0.9 g | KIDNEY_R (24 h): 0.9 g | KIDNEY_TOTAL (24 h): 1.8 g | LIVER (24 h): 10.2 g | A/G (24 h): 1.7 | ALP (24 h): 852.4 IU/L | ALT (24 h): 44.4 IU/L | AST (24 h): 67.8 IU/L | BUN (24 h): 18.4 mg/dL | CRE (24 h): 0.5 mg/dL | Ca (24 h): 10.8 mg/dL | Cl (24 h): 103.8 meq/L | DBIL (24 h): 0.002 mg/dL | GLC (24 h): 193.8 mg/dL | IP (24 h): 9.1 mg/dL | K (24 h): 4.4 meq/L | LDH (24 h): 109.6 IU/L | Na (24 h): 138.8 meq/L | PL (24 h): 139 mg/dL | RALB (24 h): 3.5 g/dL | TBIL (24 h): 0.3 mg/dL | TC (24 h): 75.2 mg/dL | TG (24 h): 103.8 mg/dL | TP (24 h): 5.6 g/dL | gamma-GTP (24 h): 1.2 IU/L
